Source: patent publication US20250235450A1, “COMBINATION THERAPIES COMPRISING APREMILAST AND TYK2 INHIBITORS” (Celgene Corporation, priority 2019, published 2025)
Where two headings read alike, the source gives them in different places.

Tests used:
[1] = system: anti-CD3/anti-CD28 (Th0) or anti-CD3/anti-CD28, IL-1β, IL-6 and IL-23 (Th17) stimulated whole blood; assay: Ex-vivo TruCulture tube assay: cytokine production in stimulated whole blood; assay type: cell-based, human; details: for inhibition at 1 µM: Homo sapiens
Protocol: Whole blood was received through the Celgene Donor program after informed consent and donor deidentification. All volunteers were healthy and were not on any medications for at least 72 hours prior to the blood draw. Blood was collected in sodium heparin tubes. The assay was started within 2 hours of the blood draw.
An ex-vivo stimulation of healthy donor human whole blood was performed under two different stimulation conditions. Condition Th0 was a stimulation with TruCulture® tubes containing anti-CD3/anti-CD28. Condition Th17 was a stimulation with TruCulture® tubes containing anti-CD3/anti-CD28 plus IL-1β, IL-6 and IL-23. Whole blood was separated into 15 milliliter conical tubes and pre-treated with DMSO, apremilast alone, BMS-986165 alone or BMS-986165 combined with apremilast. Final concentrations were 0.2% DMSO, 1 μM for apremilast alone, 1 μM, 0.1 μM, 0.01 μM and 0.001 μM BMS-986165 alone and in combination with 1 μM apremilast. Blood was mixed well and then incubated in a 37° C./5% CO2 incubator for 1 hour.
The anti-CD3/anti-CD28 (200 ng/ml and 330 ng/ml final concentrations respectively) TruCulture® tubes were thawed on the bench top for 30 minutes and then labeled. Plungers were pressed and then broken off. TruCulture® tubes were placed in a rack standing upright such that the plunger side is pointing down in the rack and the tube-cap is pointing up. While blood was incubating with compound Human recombinant IL-6, IL-1β and IL-23 were added to all Th17 tubes in the following concentrations: 120 ng IL-6, 120 ng IL-1b and 150 ng IL-23. One ml of the pre-treated whole blood was placed in each tube, using sterile pyrogen-free pipette tips. The cap was replaced and the contents of the tube were mixed by inverting 3 times. The tubes were immediately placed in a 37° C. heat block and incubated for 42 hours (tube-cap end). After the 42 hours the tubes were removed from the heat block, tops were unscrewed and 250 μl of the supernatant was removed and transferred into three 96-well polypropylene plates. Samples were immediately frozen at −80° C. The supernatants were then thawed at room temperature and tested neat for cytokine production by Luminex Multi-Plex MagPix technology (Millipore) or IL-22 by ELISA (Abcam). The manufacturer's procedures were followed accordingly.
Data processing for the cytokine analysis was done using Milliplex Analyst (Millipore), and raw data was exported to Excel template for the cytokine analysis. Data from the template was plotted using GraphPad Prism 7.0 (GraphPad Software, Inc., La Jolla, CA) and expressed as pg/ml or % of control. Statistical analysis was also performed using One Way Anova and Dunnett's Post Test.
To evaluate the combinatory effect of apremilast and BMS-986165, data from the two independent treatments were analyzed by comparing the combinatory response against the theoretical additive response of the two agents. The expected additive effect of two agents (A and B) was calculated using the fractional product method: (fu)A,B=(fu)A×(fu)B; where fu=fraction unaffected by treatment.

LPS stimulated PBMCs = assay: Viability of LPS stimulated PBMCs; assay type: cell-based, human; parameters: key: ↑: Induced; —: No change; ↓: Reduced

Compound: CCOc1cc([C@@H](CS(C)(=O)=O)N2C(=O)c3cccc(NC(C)=O)c3C2=O)ccc1OC [Apremilast, N-[2-[(1S)-1-(3-ethoxy-4-methoxyphenyl)-2-(methylsulfonyl)ethyl]-2,3-dihydro-1,3-dioxo-1H-isoindol-4-yl]acetamide]
- inhibition at 1 µM ([1]; Th0, 1 μM apremilast, read-out: inhibition of IL-17F production): 69%
- inhibition at 1 µM ([1]; Th0, 1 μM apremilast, read-out: inhibition of TNF-α levels): 90%
- inhibition at 1 µM ([1]; Th17, 1 μM apremilast, read-out: inhibition of IL-17F production): 49%
- inhibition at 1 µM ([1]; Th17, 1 μM apremilast, read-out: inhibition of TNF-α levels): 94%
- CCL20 % of Control ([1]; Th0, 1 μM apremilast): 59.5 % of Control
- GM-CSF % of Control ([1]; Th0, 1 μM apremilast): 20.3 % of Control
- IFN-γ % of Control ([1]; Th0, 1 μM apremilast): 9.3 % of Control
- IL-1β % of Control ([1]; Th0, 1 μM apremilast): 16.4 % of Control
- IL-2 % of Control ([1]; Th0, 1 μM apremilast): 17.9 % of Control
- IL-4 % of Control ([1]; Th0, 1 μM apremilast): 30.3 % of Control
- IL-5 % of Control ([1]; Th0, 1 μM apremilast): 6.2 % of Control
- IL-6 % of Control ([1]; Th0, 1 μM apremilast): 52.8 % of Control
- IL-10 % of Control ([1]; Th0, 1 μM apremilast): 41.6 % of Control
- IL-13 % of Control ([1]; Th0, 1 μM apremilast): 15.3 % of Control
- IL-17A % of Control ([1]; Th0, 1 μM apremilast): 71.6 % of Control
- IL-17F % of Control ([1]; Th0, 1 μM apremilast): 31.8 % of Control
- IL-21 % of Control ([1]; Th0, 1 μM apremilast): 62.9 % of Control
- IL-22 % of Control ([1]; Th0, 1 μM apremilast): 14.8 % of Control
- IL-23 % of Control ([1]; Th0, 1 μM apremilast): 82.1 % of Control
- TNF-α % of Control ([1]; Th0, 1 μM apremilast): 10.7 % of Control
- inhibition of IL-17A cytokine expression ([1]; Th0, 1 μM apremilast): 28%
- inhibition of IL-22 cytokine expression ([1]; Th0, 1 μM apremilast): 85%
- reduction of GM-CSF cytokine expression ([1]; Th0, 1 μM apremilast): 80%
- IL-17A levels ([1]; Th0, 1 μM apremilast, control 138 pg/mL): 93 pg/mL
- IL-17F levels ([1]; Th0, 1 μM apremilast, control 1085 pg/mL): 368 pg/mL
- TNF-α levels ([1]; Th0, 1 μM apremilast, control 1380 pg/mL): 148 pg/mL
- effect on GM-CSF, statistical significance ([1]; Th0 and Th17, apremilast): significantly inhibited
- CCL20 % of Control ([1]; Th17, 1 μM apremilast): 220.3 % of Control
- GM-CSF % of Control ([1]; Th17, 1 μM apremilast): 33.8 % of Control
- IFN-γ % of Control ([1]; Th17, 1 μM apremilast): 18.7 % of Control
- IL-1β % of Control ([1]; Th17, 1 μM apremilast): 98 % of Control
- IL-2 % of Control ([1]; Th17, 1 μM apremilast): 14.4 % of Control
- IL-4 % of Control ([1]; Th17, 1 μM apremilast): 36.7 % of Control
- IL-5 % of Control ([1]; Th17, 1 μM apremilast): 4.8 % of Control
- IL-6 % of Control ([1]; Th17, 1 μM apremilast): 95.3 % of Control
- IL-10 % of Control ([1]; Th17, 1 μM apremilast): 32.6 % of Control
- IL-13 % of Control ([1]; Th17, 1 μM apremilast): 22.1 % of Control
- IL-17A % of Control ([1]; Th17, 1 μM apremilast): 102.4 % of Control
- IL-17F % of Control ([1]; Th17, 1 μM apremilast): 59.7 % of Control
- IL-21 % of Control ([1]; Th17, 1 μM apremilast): 76.2 % of Control
- IL-22 % of Control ([1]; Th17, 1 μM apremilast): 57.5 % of Control
- IL-23 % of Control ([1]; Th17, 1 μM apremilast): 94.3 % of Control
- TNF-α % of Control ([1]; Th17, 1 μM apremilast): 5.8 % of Control
- effect on IL-17A cytokine expression ([1]; Th17, 1 μM apremilast): no effect
- inhibition of IL-22 cytokine expression ([1]; Th17, 1 μM apremilast): 41%
- reduction of GM-CSF cytokine expression ([1]; Th17, 1 μM apremilast): 66%
- TNF-α levels ([1]; Th17, 1 μM apremilast, control 1436 pg/mL): 91 pg/mL
- IL-17F levels ([1]; Th17, 1 μM apremilast, control 6524 pg/mL): 3643 pg/mL
- effect on GM-CSF production ([1]; whole blood, Th0 and Th17): inhibited
- effect on TNF-α production ([1]; whole blood, Th0 and Th17): inhibited
- Viability (LPS stimulated PBMCs): —
